Reference: patent US20240294525A1, “COMPOUNDS AS GLP-1 RECEPTOR AGONISTS AND USES THEREOF” (CGENETECH (SUZHOU, CHINA) CO., LTD., priority 2021, published 2024)

Experiments:
[1] = target: GLP-1R (Homo sapiens, UniProt P43220); assay: GLP-1R cAMP experiment (HTRF cAMP agonist detection); format: cell-based; conditions: GLP-1R-HEK293 cells
Description: The initial concentration was 500 nM, the compounds were diluted according to a 4-fold gradient in a total of 10 concentrations, and the diluent was dimethyl sulfoxide.
• 1) 100 nL of each compound was transferred to a OptiPlate 384-well plate by using an Echo liquid transfer system; and • 2) the 384-well plate was centrifuged at 1000 rpm for 5 s.
• 1) According to a conventional cell thawing method, a GLP-1R-HEK293 cell line was rapidly thawed in a 37° C. water bath; • 2) the cell suspension was transferred to a 15 mL centrifuge tube containing 10 mL of 1×HBSS solution; • 3) at room temperature, the tube was centrifuged at 1000 rpm for 5 min, to collect cells; 4) a supernatant was discarded carefully, and attention was paid to avoid sucking away the cells; • 5) the centrifuge tube was flicked gently, so that the cells were loosened, and 10 mL of 1×HBSS solution was added to resuspend the cells. The cells were blown and beaten up and down by using a sterile pipette, until the cells were blown and beaten to a single-cell state; • 6) the cells were counted by using a Vi-cell counter, to determine the cell concentration and determine the cell activity; • 7) GLP-1R-HEK293 cells were resuspended in a cAMP detection buffer solution (from the above cAMP detection kit), and the concentration was 2.0×10^5/mL; and 8) 10 μL of the GLP-1R-HEK293 cells was transferred into the OptiPlate 384-well plate. 2.4 HTRF cAMP Agonist Detection • 1) The 384-well plate was incubated at room temperature for 20 min, then a cAMP detection reagent (from the above cAMP detection kit) was added; • 2) an electric multi-channel pipette was used to add 10 μL of the cAMP detection reagent to each well; • 3) the 384-well plate was covered by using a TopSeal-A film, and incubated at room temperature for 60 min; and • 4) the TopSeal-A film was removed, and a signal on an Envision instrument was read.

[2] = Oral pharmacokinetics in mice; format: in vivo, C57 mice; conditions: 10 mg/kg
Description: Healthy male C57 mice (9 mice per compound, n=3), purchased from Shanghai Jihui Laboratory Animal Care Co., LTD, with an age of 6-8 weeks.
The mice were fasted overnight before oral administration, and drunk freely, and feeding was resumed after 4 h of the administration. According to the weight of the mice weighed before the administration, the administration dose was calculated. It was intragastrically administered, and the administration dose was 10 mg/kg. At 0.083 h, 0.25 h, 0.5 h, 1 h, 2 h, 4 h, 8 h, and 24 h after the administration to test animals, about 110 μL of whole blood were respectively collected from submandibular veins of the mice by a semi-continuous method, and placed in a test tube containing K2EDTA. The tube was placed on ice, and centrifuged within 30 min (2000 g, 5 min, 4° C.), plasma was collected, transferred to an appropriately labeled test tube, and frozen at −80° C. in a refrigerator.
A chromatographic column was Waters ACQUITY UPLC BEH C18 (2.1×50 mm, and 1.7 μm); mobile phase A: H2O-0.025% FA-1 mM NH4OAC, mobile phase B: ACN-0.025% FA-1 mM NH4OAC, flow rate: 0.60 mL/min, gradient elution program: start, 2% B, 0.2 min; 60% B, 0.7 min; 90% B, 1.50 min; 90% B, 2.0 min; 2% B, 2.01 min; 2.6 min, and stop; column temperature: 50° C.; and injection volume: 1 μL.
Mass spectrometry method: LC-MS/MS-49 (Triple Quad 6500+)(SCIEX, USA), the ion source was an ESI source, the detection mode was positive ion detection, and the scanning mode was a multi-reaction monitoring (MRM) mode, m/z: 446.20/321.10 Da (Glipizide, internal standard).
10 μL of a plasma sample was taken and 200 μL of an internal standard working solution (Glipizide, 50 ng/mL) was added, vortex was performed for 1 min, then the mixture was centrifuged at 5800 rpm for 10 min. 70 μL of a supernatant was transferred to a 96-well plate, and 1 μL of the supernatant was taken and injected into LC-MS/MS for analysis.
Pharmacokinetic (PK) parameters were calculated by using Phoenix WinNonlin 7.0; and the oral pharmacokinetic parameters of the mice, including AUC, Cmax, Tmax, T1/2 and the like, were estimated by using a non-compartmental model. […] PGP-46 T2

[3] = test system: hGLP-1R transgenic mouse B-hGLP-1R; assay: Mouse intraperitoneal glucose tolerance test (IPGTT); format: in vivo; conditions: hGLP-1R mice, 10 mg/kg oral gavage
Text: Specific steps were as follows: • 1) After the arrival of experimental animals (hGLP-1R transgenic mouse B-hGLP-1R, SPF-grade mouse, male, 6-8 weeks, and purchased from Baiosaitu Jiangsu Gene Biotechnology Co., Ltd.), all experimental animals were divided into one animal per cage and fed and adapted for 7 days before the start of the experiment (during which the health status of the animals was observed). At least 3 days before the start of IPGTT, the animals were weighed and solvent (0.5% methylcellulose solution) intragastric administration and intraperitoneal saline injection were performed. • 2) On the day before the experiment, the experimental animals were fasted overnight (14 h, 19:00-9:00), and at 9:00 am, the experimental animals were weighed and blood was collected from tail tips to measure the blood glucose.

[4] = test system: patients with Type-2 diabetes mellitus; conditions: first-phase clinical; cited from earlier work

Chain of GLP-1R (P43220 24-463): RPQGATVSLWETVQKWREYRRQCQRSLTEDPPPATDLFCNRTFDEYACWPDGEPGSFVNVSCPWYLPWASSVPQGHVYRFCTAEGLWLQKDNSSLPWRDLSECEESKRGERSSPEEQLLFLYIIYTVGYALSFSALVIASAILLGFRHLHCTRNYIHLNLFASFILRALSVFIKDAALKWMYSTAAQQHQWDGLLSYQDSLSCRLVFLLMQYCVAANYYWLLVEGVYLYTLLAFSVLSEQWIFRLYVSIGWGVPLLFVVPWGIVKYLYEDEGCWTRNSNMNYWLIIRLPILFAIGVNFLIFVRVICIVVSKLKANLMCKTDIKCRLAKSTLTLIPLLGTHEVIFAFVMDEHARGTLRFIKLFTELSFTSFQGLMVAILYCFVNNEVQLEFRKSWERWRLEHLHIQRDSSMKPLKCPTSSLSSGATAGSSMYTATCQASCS

## C#Cc1ccc(COc2cccc(C3CCN(Cc4nc5ccc(C(=O)O)cc5n4C[C@@H]4CCO4)CC3)n2)c(F)c1 [Compound 1]
[1]
  EC50: 0.82 nM
[2]; male, C57, mouse, in vivo, po
  AUC(0-inf): 3560 ng·h/mL
  AUC(0-t): 3310 ng·h/mL
  Cmax: 1700 ng/mL
  MRT inf: 1.8 h
  MRT last: 1.5 h
  Tmax: 0.5 h
  half-life: 2.2 h

## C#Cc1ccc(COc2cccc(N3CCN(Cc4nc5ccc(C(=O)O)cc5n4C[C@@H]4CCO4)CC3)n2)c(F)c1 [Compound 2]
[1]
  EC50: 0.96 nM
[2]; male, C57, mouse, in vivo, po
  AUC(0-inf): 7010 ng·h/mL
  AUC(0-t): 6930 ng·h/mL
  Cmax: 3170 ng/mL
  MRT inf: 3 h
  MRT last: 2.8 h
  Tmax: 0.5 h
  half-life: 2.6 h
[3]; 2 g/kg glucose i.p.
  blood glucose reducing effect: significant blood glucose reducing effect
[3]; IPGTT
  overall blood glucose-reducing effect compared with PF-06882961: better than PF-06882961

## CC#Cc1ccc(COc2cccc(N3CCN(Cc4nc5ccc(C(=O)O)cc5n4C[C@@H]4CCO4)CC3)n2)c(F)c1 [Compound 3]
[1]
  EC50: 0.8 nM

## O=C(O)c1ccc2nc(CN3CCN(c4cccc(OCc5ccc(C#CC6CC6)cc5F)n4)CC3)n(C[C@@H]3CCO3)c2c1 [Compound 4]
[1]
  EC50: 1.75 nM

## O=C(O)c1ccc2nc(CN3CCN(c4cccc(OCc5ccc(C#CCO)cc5F)n4)CC3)n(C[C@@H]3CCO3)c2c1 [Compound 5]
[1]
  EC50: 5.2 nM

## C#Cc1ccc(COc2cccc(N3CCN(Cc4nc5ccc(C(=O)O)cc5n4C[C@@H]4CCO4)CC3)n2)cc1 [Compound 7]
[1]
  EC50: 0.39 nM
[2]; male, C57, mouse, in vivo, po
  AUC(0-inf): 12500 ng·h/mL
  AUC(0-t): 12500 ng·h/mL
  Cmax: 6170 ng/mL
  MRT inf: 2 h
  MRT last: 2 h
  Tmax: 0.5 h
  half-life: 3.1 h

## C#Cc1ccc(COc2cccc(N3CCN(Cc4nc5ccc(C(=O)O)cc5n4C[C@@H]4CCO4)CC3)n2)c(Cl)c1 [Compound 8]
[1]
  EC50: 0.1 nM
[2]; male, C57, mouse, in vivo, po
  AUC(0-inf): 10900 ng·h/mL
  AUC(0-t): 10900 ng·h/mL
  Cmax: 4370 ng/mL
  MRT inf: 2.5 h
  MRT last: 2.5 h
  Tmax: 1 h
  half-life: 2.3 h

## C#Cc1ccc(COc2cccc(N3CCN(Cc4nc5ccc(C(=O)O)nc5n4C[C@@H]4CCO4)CC3)n2)c(F)c1 [Compound 9]
[1]
  EC50: 0.15 nM
[2]; male, C57, mouse, in vivo, po
  AUC(0-inf): 3920 ng·h/mL
  AUC(0-t): 3880 ng·h/mL
  Cmax: 2620 ng/mL
  MRT inf: 1.4 h
  MRT last: 1.3 h
  Tmax: 0.5 h
  half-life: 1.4 h

## C#Cc1ccc(COc2nc(N3CCN(Cc4nc5ccc(C(=O)O)cc5n4C[C@@H]4CCO4)CC3)ccc2F)c(F)c1 [Compound 10]
[1]
  EC50: 0.1 nM
[2]; male, C57, mouse, in vivo, po
  AUC(0-inf): 9800 ng·h/mL
  AUC(0-t): 9780 ng·h/mL
  Cmax: 4350 ng/mL
  MRT inf: 2.6 h
  MRT last: 2.5 h
  Tmax: 0.5 h
  half-life: 2.7 h

## C#Cc1ccc(COc2cccc(C3CCN(Cc4nc5c(F)cc(C(=O)O)cc5n4C[C@@H]4CCO4)CC3)n2)c(F)c1 [Compound 11]
[1]
  EC50: 0.14 nM
[2]; male, C57, mouse, in vivo, po
  AUC(0-inf): 2280 ng·h/mL
  AUC(0-t): 2270 ng·h/mL
  Cmax: 2030 ng/mL
  MRT inf: 1.9 h
  MRT last: 1.8 h
  Tmax: 0.5 h
  half-life: 3.9 h

## C#Cc1ccc(COc2cccc(N3CCN(Cc4nc5c(F)cc(C(=O)O)cc5n4C[C@@H]4CCO4)CC3)n2)c(Cl)c1 [Compound 12]
[1]
  EC50: 0.41 nM

## C#Cc1ccc(COc2nc(N3CCN(Cc4nc5ccc(C(=O)O)cc5n4C[C@@H]4CCO4)CC3)ccc2F)cc1 [Compound 15]
[1]
  EC50: 0.85 nM

## C#Cc1ccc(COc2nc(N3CCN(Cc4nc5ccc(C(=O)O)nc5n4C[C@@H]4CCO4)CC3)ccc2F)cc1 [Compound 16]
[1]
  EC50: 1.07 nM

## C#Cc1ccc(COc2nc(N3CCN(Cc4nc5ccc(C(=O)O)nc5n4C[C@@H]4CCO4)CC3)ccc2F)c(F)c1 [Compound 17]
[1]
  EC50: 0.56 nM
[2]; male, C57, mouse, in vivo, po
  AUC(0-inf): 5140 ng·h/mL
  AUC(0-t): 5130 ng·h/mL
  Cmax: 2830 ng/mL
  MRT inf: 1.9 h
  MRT last: 1.9 h
  Tmax: 0.25 h
  half-life: 3 h

## C#Cc1ccc(COc2nc(N3CCN(Cc4nc5ccc(C(=O)O)nc5n4C[C@@H]4CCO4)CC3)ccc2F)c(Cl)c1 [Compound 18]
[1]
  EC50: 0.37 nM
[2]; male, C57, mouse, in vivo, po
  AUC(0-inf): 4140 ng·h/mL
  AUC(0-t): 4130 ng·h/mL
  Cmax: 1470 ng/mL
  MRT inf: 3.1 h
  MRT last: 3.1 h
  Tmax: 0.5 h
  half-life: 2.6 h

## C#Cc1ccc(COc2nc(N3CCN(Cc4nc5ccc(C(=O)O)cc5n4C[C@@H]4CCO4)CC3)ccc2F)c(Cl)c1 [Compound 19]
[1]
  EC50: 0.51 nM
[2]; male, C57, mouse, in vivo, po
  AUC(0-inf): 10300 ng·h/mL
  AUC(0-t): 10300 ng·h/mL
  Cmax: 3300 ng/mL
  MRT inf: 2.7 h
  MRT last: 2.7 h
  Tmax: 0.5 h
  half-life: 2.4 h

## C#Cc1ccc(COc2nc(C3CCN(Cc4nc5ccc(C(=O)O)nc5n4C[C@@H]4CCO4)CC3)ccc2F)c(F)c1 [Compound 20]
[1]
  EC50: 0.59 nM

## N#Cc1ccc(COc2cccc(C3CCN(Cc4nc5ccc(C(=O)O)cc5n4C[C@@H]4CCO4)CC3)n2)c(F)c1 [PF-06882961, reference compound]
[2]; male C57 mice, intragastric
  AUC(0-t): 3427.0 ng·h/mL
  AUC(0-∞): 3444.0 ng·h/mL
  Cmax: 4967.0 ng/mL
  MRT(0-t): 0.8 h
  MRT(0-∞): 0.8 h
  T1/2: 1.4 h
  Tmax: 0.25 h
[4]
  effects on blood glucose and weight: significant effects on reducing blood glucose and weight
